Measurements from patent publication US20150276714A1, “METHOD OF IDENTIFYING OR EVALUATING BENEFICIAL ACTIVES AND COMPOSITIONS CONTAINING THE SAME” (The Procter & Gamble Company, priority 2012, published 2015).

Tests used:
[1] = tested on: human dermal fibroblasts (BJ cell line); assay: Extracellular acidification rate (glycolysis), XF Extracellular Flux Analyzer; format: cell-based
Source text: This method enables the non-lethal, simultaneous detection of metabolic indicators associated with the oxidative phosphorylation and glycolysis metabolic pathways in a controlled environment. The method also enables the collection of kinetic data. When assessing the metabolic response to a stressor or test agent, it is important to assess both metabolic pathways simultaneously to understand how the two metabolic pathways interact with the stressor or test agent and/or to one another. Additionally, it is important to monitor the metabolic pathways in real time (i.e., repeating periodic measurements) to observe trends and/or transient responses that may be missed when using methods that provide only static data. Thus, destructive tests are not suitable for use herein since they typically only allow for a single measurement. With regard to the fibroblasts discussed above in FIGS. 5A, 5B, 5C, 5D, 5E, 6, 7A, 7B, 7C, 7D, 7E and 8, frozen human dermal fibroblasts were obtained from the BJ cell line commercially available from ATCC, Bethesda, Md. The fibroblasts were grown to 70-80% confluence in a culture medium of Eagle's Minimum Essential Medium (“EMEM”) supplemented with 10% fetal bovine serum (“FBS”) and gentamicin/amphotericin B ×500 solution (EMEM and FBS are available from ATCC, and gentamicin/amphotericin B ×500 solution is available from Invitrogen). The fibroblasts were plated at 1×10^5 cells per well in Gelatin-coated plates 24 hours prior to testing. Each well included 100 μL of the fibroblast medium described above. A test medium was made from Dulbecco's Modified Eagle Medium (available from Seahorse Bioscience), 25 mM glucose and 1 mM pyruvate. The test medium was warmed to 37° C. and the pH adjusted to 7.4. The cells were grown and plated at 37° C. and 5% CO2 air. The fibroblast medium in the wells was replaced by the test medium 1 hour prior to taking measurements. Oxygen consumption rate and extracellular acidification rate may be detected using an XF Extracellular Flux Analyzer or equivalent. […]

[2] = tested on: human dermal fibroblasts (BJ cell line); assay: Oxygen consumption rate (oxidative phosphorylation), XF Extracellular Flux Analyzer; format: cell-based
Source text: This method enables the non-lethal, simultaneous detection of metabolic indicators associated with the oxidative phosphorylation and glycolysis metabolic pathways in a controlled environment. The method also enables the collection of kinetic data. When assessing the metabolic response to a stressor or test agent, it is important to assess both metabolic pathways simultaneously to understand how the two metabolic pathways interact with the stressor or test agent and/or to one another. Additionally, it is important to monitor the metabolic pathways in real time (i.e., repeating periodic measurements) to observe trends and/or transient responses that may be missed when using methods that provide only static data. Thus, destructive tests are not suitable for use herein since they typically only allow for a single measurement. With regard to the fibroblasts discussed above in FIGS. 5A, 5B, 5C, 5D, 5E, 6, 7A, 7B, 7C, 7D, 7E and 8, frozen human dermal fibroblasts were obtained from the BJ cell line commercially available from ATCC, Bethesda, Md. […] Oxygen consumption rate and extracellular acidification rate may be detected using an XF Extracellular Flux Analyzer or equivalent. […]

NC(=O)c1cccnc1 [niacinamide]
effect on hydrogen peroxide-induced decrease in glycolysis metabolism ([1]; plate 1, 0.1 mM and […] niacinamide in combination with […] hydrogen peroxide): lessen the detrimental effect of the hydrogen peroxide on glycolysis metabolism | effect on hydrogen peroxide-induced decrease in extracellular acidification rate ([1]; plate 2, 0.5 mM and 1.0 mM niacinamide in combination with […] hydrogen peroxide): prevent the acidification rate from decreasing below the basal value | effect on fibroblast glycolysis ([1]; plate 2, 1.0 mM niacinamide by itself): substantially no effect on fibroblast glycolysis | effect on oxphos metabolism ([2]; 1.0 mM niacinamide by itself): no significant affect on the oxphos metabolism | effect on OCR in presence of hydrogen peroxide ([2]; niacinamide 1.0 mM in combination with […] hydrogen peroxide): lessen the initial decrease in OCR somewhat
